Reference: ChEMBL document CHEMBL1127227, “1H-1,2,4-triazole angiostensin II receptor antagonists: qC-linkedq analogs of SC-50560” (Bioorg Med Chem Lett, 1994)
Several values for one entry are separate records, joined by “and”; a condition that tells them apart may be missing. Equal values may be shown once.

species: Oryctolagus cuniculus; test: Antagonism of AII-contracted rabbit aortic rings; format: functional, organism-based, Aorta; details: not given

Row | SMILES | pA2
1 | CCCCc1nc(Cc2ccc(-c3ccccc3-c3nn[nH]n3)cc2)nn1CCCC | 5.3

same assay, conditions: Oryctolagus cuniculus, Aorta; read-out: pA2 (converted)

Row | SMILES | Kb
2 | CCCCc1nc(Cc2ccc(-c3ccccc3C(=O)O)cc2)n(CCCC)n1 | 79.4 nM
3 | CCCCc1nc(Cc2ccc(-c3ccccc3-c3nn[nH]n3)cc2)nn1CCCC | 10000 nM
4 | CCCCc1nc(Cc2ccc(-c3ccccc3-c3nn[nH]n3)cc2)n(CCCC)n1 | 3.16 nM
5 | CCCCn1nc(CCc2ccccc2)nc1Cc1ccc(-c2ccccc2-c2nn[nH]n2)cc1 | 12.6 nM
6 | CCCCn1nc(C(F)(F)CCC)nc1Cc1ccc(-c2ccccc2-c2nn[nH]n2)cc1 | 10 nM
7 | CCCCc1nc(C(O)c2ccc(-c3ccccc3-c3nn[nH]n3)cc2)n(CCCC)n1 (stereo not drawn) | 251 nM
8 | CCCCc1nc(CCCC)n(Cc2ccc(-c3ccccc3-c3nn[nH]n3)cc2)n1 | 2 nM

target: T1, Angiotensin II receptor (Rattus norvegicus, UniProt P29089+P25095+P35351); test: Inhibition of [125I]- AII binding to rat uterine membrane angiotensin II receptor; details: not given
T1 sequence (P29089 whole entry): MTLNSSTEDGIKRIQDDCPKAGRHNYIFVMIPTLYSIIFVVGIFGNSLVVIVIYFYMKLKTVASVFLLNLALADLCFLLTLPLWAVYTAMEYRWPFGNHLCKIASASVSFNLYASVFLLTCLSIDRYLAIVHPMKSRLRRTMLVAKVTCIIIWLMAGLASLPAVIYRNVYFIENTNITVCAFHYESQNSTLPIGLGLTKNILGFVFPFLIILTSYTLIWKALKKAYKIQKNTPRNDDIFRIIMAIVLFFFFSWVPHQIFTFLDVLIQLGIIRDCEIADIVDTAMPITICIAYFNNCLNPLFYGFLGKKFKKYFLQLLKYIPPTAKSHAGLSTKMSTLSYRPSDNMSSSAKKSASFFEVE
T1 sequence (P25095 whole entry): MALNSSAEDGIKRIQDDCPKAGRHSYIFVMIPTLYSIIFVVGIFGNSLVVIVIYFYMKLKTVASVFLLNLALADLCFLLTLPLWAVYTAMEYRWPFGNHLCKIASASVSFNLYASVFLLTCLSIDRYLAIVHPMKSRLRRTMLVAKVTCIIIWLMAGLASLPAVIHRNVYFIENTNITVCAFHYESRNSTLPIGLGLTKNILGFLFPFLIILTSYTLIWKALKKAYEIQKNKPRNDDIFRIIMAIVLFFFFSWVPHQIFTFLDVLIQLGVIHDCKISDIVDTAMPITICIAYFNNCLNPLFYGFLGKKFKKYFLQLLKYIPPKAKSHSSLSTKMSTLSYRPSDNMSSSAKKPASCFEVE
T1 sequence (P35351 whole entry): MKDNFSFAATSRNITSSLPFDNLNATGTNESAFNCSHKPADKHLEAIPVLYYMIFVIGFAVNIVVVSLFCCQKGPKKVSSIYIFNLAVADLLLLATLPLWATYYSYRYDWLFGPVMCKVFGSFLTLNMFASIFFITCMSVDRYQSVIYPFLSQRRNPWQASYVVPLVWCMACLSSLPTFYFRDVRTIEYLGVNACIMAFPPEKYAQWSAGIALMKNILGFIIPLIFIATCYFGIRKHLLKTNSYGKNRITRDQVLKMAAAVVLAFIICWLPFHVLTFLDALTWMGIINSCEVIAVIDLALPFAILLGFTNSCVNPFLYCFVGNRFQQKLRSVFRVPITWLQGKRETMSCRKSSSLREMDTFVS

Row | IC50 | SMILES
9 | 710 nM | CCCCc1nc(C(F)(F)c2ccc(-c3ccccc3-c3nn[nH]n3)cc2)n(CCCC)n1
10 | 140 nM | CCCCc1nc(Cc2ccc(-c3ccccc3-c3nnn(C(c4ccccc4)(c4ccccc4)c4ccccc4)n3)cc2)n(CCCC)n1
11 | 240 nM | CCCCc1nc(Cc2ccc(-c3ccccc3C(=O)O)cc2)n(CCCC)n1
12 | 12000 nM and 6700 nM | CCCCc1nc(Cc2ccc(-c3ccccc3-c3nn[nH]n3)cc2)nn1CCCC
13 | 16 nM | CCCCc1nc(Cc2ccc(-c3ccccc3-c3nn[nH]n3)cc2)n(CCCC)n1
14 | 9.5 nM | CCCCn1nc(CCc2ccccc2)nc1Cc1ccc(-c2ccccc2-c2nn[nH]n2)cc1
15 | 29000 nM | CCCCc1nc(C(C)c2ccc(-c3ccccc3-c3nn[nH]n3)cc2)n(CCCC)n1 (stereo not drawn)
16 | 40 nM | CCCCn1nc(C(F)(F)CCC)nc1Cc1ccc(-c2ccccc2-c2nn[nH]n2)cc1
17 | 32000 nM | CCCCc1nc(C(=O)c2ccc(-c3ccccc3-c3nn[nH]n3)cc2)n(CCCC)n1
18 | 1800 nM | CCCCc1nc(C(O)c2ccc(-c3ccccc3-c3nn[nH]n3)cc2)n(CCCC)n1 (stereo not drawn)
